Data from US20160256515A1, “COMPOSITIONS AND METHODS FOR PREDICTION AND TREATMENT OF HUMAN CYTOMEGALOVIRUS INFECTIONS” (THE JOHNS HOPKINS UNIVERSITY, priority 2013, published 2016).
Where two headings read alike, the source gives them in different places.

Columns and labels:
NOD2 mRNA = format: cell-based, human; conditions: non-infected HFFs, MDP 10 μg/ml
human CMV (HCMV) = test: CMV plaque numbers in human fibroblasts after pre-treatment; format: cell-based, human cytomegalovirus; conditions: pre-treatment of human fibroblasts followed by CMV infection
IFN-β = IFN-β response (qPCR, ELISA) after pretreatment and CMV infection; format: cell-based, human
Description: RNA isolation and real time quantitative reverse transcriptase (qRT) PCR: Total RNA was isolated from cultured cells using RNeasy Mini kit (Qiagen, Georgetown, Md.) according to manufacturer's instructions. RevertAid first strand cDNA synthesis kit (Fermentas life sciences, Cromwell Park, Md.) was used to synthesize first strand cDNA from total RNA using oligo-dT primers. Negative reverse-transcriptase (−RT) reactions were included to ensure the specificity of qRT-PCR reactions. Synthesis of first strand cDNA from mRNA template was carried out at 42° C. for 1 h. Quantitative RT-PCR (qRT-PCR) was performed using specific primers and SYBER green (Fermentas life science) with two-step cycling protocol (95° C. for 15 s, 60° C. for 1 min). Reactions were performed in triplicates and GAPDH was used as internal control. mRNA levels in HCMV-infected cells were normalized to the mRNA produced in non-infected HFFs in addition to the internal normalization of each sample to GAPDH. The primers and gene targets appear in Table 1.
ELISA: Human interferon β (IFN-β) specific ELISA kit (PBL Interferon Source) was used to measure levels of secreted IFN-β from HFF-control and HFF-NOD2 overexpressing cells according to manufacturer's instructions.

SMILES | induction of NOD2 expression (NOD2 mRNA; 12 h) | induction of NOD2 expression (NOD2 mRNA; 72 h) [fold] | plaque numbers (human CMV (HCMV)) | interferon response (IFN-β) (IFN-β; pretreatment) | mRNA and protein expression of IFN-β (IFN-β; pretreatment followed by CMV infection, qPCR and ELISA) | IFN-β responses in NOD2 KD cells (IFN-β; treatment in NOD2 KD cells)
CC(=O)N[C@H]1C(O)O[C@H](CO)[C@@H](O)[C@@H]1O[C@H](C)C(=O)N[C@@H](C)C(=O)N[C@H](CCC(=O)O)C(N)=O (mixture of isomers) [MDP, muramyl dipeptide] | two fold | 1400 |  |  |  | 
C[C@H](N)C(=O)N[C@H](CCC(=O)NC(CCCC(N)C(=O)O)C(=O)O)C(=O)O (stereo partly drawn) [tri-DAP, L-Ala-γ-D-Glu-mDAP] |  |  | significant reduction | enhanced | increased | can initiate independent IFN-β responses
